Test results taken from ChEMBL document CHEMBL1137144, “Synthesis and biological evaluation of novel 4"-alkoxy avermectin derivatives” (2004).
Converted amounts (≈) assume the structure as drawn.

Columns and labels:
Caenorhabditis elegans = assay: Minimum inhibitory concentration for growth inhibition of Caenorhabditis elegans (free living nematode) in a microplate assay; type: functional
Artemia salina = assay: Minimum inhibitory concentration for growth inhibition of Artemia salina(brine shrimp) in a microplate assay; type: functional

CCC(C)[C@H]1O[C@]2(C=C[C@@H]1C)C[C@@H]1C[C@@H](C/C=C(\C)[C@@H](OC3C[C@H](OC)[C@@H](OC4C[C@H](OC)[C@@H](OCC(=O)N5CCOCC5)[C@H](C)O4)[C@H](C)O3)[C@@H](C)/C=C/C=C3\CO[C@@H]4[C@H](O)C(C)=C[C@@H](C(=O)O1)[C@]34O)O2 (stereo not given in full)
MIC (Caenorhabditis elegans): 0.5 ng/mL (≈ 0.5 nM)
MIC (Artemia salina): 0.5 ng/mL (≈ 0.5 nM)

CCOC(=O)CO[C@H]1[C@H](C)O[C@@H](OC2[C@H](C)O[C@@H](OC3/C(C)=C/C[C@@H]4C[C@@H](C[C@]5(C/C(=N\OC)[C@H](C)[C@@H](C(C)CC)O5)O4)OC(=O)C4C=C(C)[C@@H](O)[C@H]5OC/C(=C\C=C\[C@@H]3C)C45O)C[C@@H]2OC)C[C@@H]1OC (stereo not given in full)
MIC (Caenorhabditis elegans): 2 ng/mL (≈ 1.99 nM)
MIC (Artemia salina): 2 ng/mL (≈ 1.99 nM)

CCC(C)[C@H]1O[C@]2(C=C[C@@H]1C)C[C@@H]1C[C@@H](C/C=C(\C)[C@@H](OC3C[C@H](OC)[C@@H](OC4C[C@H](OC)[C@@H](OCC(=O)O)[C@H](C)O4)[C@H](C)O3)[C@@H](C)/C=C/C=C3\CO[C@@H]4[C@H](O)C(C)=C[C@@H](C(=O)O1)[C@]34O)O2 (stereo not given in full)
MIC (Caenorhabditis elegans): 0.1 ng/mL (≈ 0.107 nM)
MIC (Artemia salina): 0.02 ng/mL (≈ 0.0215 nM)

CCC(C)[C@H]1O[C@]2(CC[C@@H]1C)C[C@@H]1C[C@@H](C/C=C(\C)[C@@H](OC3C[C@H](OC)[C@@H](OC4C[C@H](OC)[C@@H](O)[C@H](C)O4)[C@H](C)O3)[C@@H](C)/C=C/C=C3\CO[C@@H]4[C@H](O)C(C)=C[C@@H](C(=O)O1)[C@]34O)O2 (stereo not given in full)
MIC (Caenorhabditis elegans): 2 ng/mL (≈ 2.29 nM)
MIC (Artemia salina): 2 ng/mL (≈ 2.29 nM)

CCC(C)[C@H]1O[C@]2(C=C[C@@H]1C)C[C@@H]1C[C@@H](C/C=C(\C)C(O[C@H]3C[C@H](OC)C(O[C@H]4C[C@H](OC)[C@@H](OCCN5CCNCC5)[C@H](C)O4)[C@H](C)O3)[C@@H](C)/C=C/C=C3\CO[C@@H]4[C@H](O)C(C)=CC(C(=O)O1)C34O)O2 (stereo not given in full)
MIC (Caenorhabditis elegans): 50 ng/mL (≈ 50.7 nM)
MIC (Artemia salina): 10 ng/mL (≈ 10.1 nM)

CCC(C)[C@H]1O[C@]2(C=C[C@@H]1C)C[C@@H]1C[C@@H](C/C=C(\C)[C@@H](OC3C[C@H](OC)[C@@H](OC4C[C@H](OC)C(OCC(=O)N5CCCCC5)[C@H](C)O4)[C@H](C)O3)[C@@H](C)/C=C/C=C3\CO[C@@H]4[C@H](O)C(C)=C[C@@H](C(=O)O1)[C@]34O)O2 (stereo not given in full)
MIC (Caenorhabditis elegans): 10 ng/mL (≈ 10 nM)
MIC (Artemia salina): 10 ng/mL (≈ 10 nM)

CC[C@H](C)[C@H]1O[C@]2(C=C[C@@H]1C)C[C@@H]1C[C@@H](C/C=C(\C)[C@@H](O[C@H]3C[C@H](OC)[C@@H](O[C@H]4C[C@H](OC)[C@@H](O)[C@H](C)O4)[C@H](C)O3)[C@@H](C)/C=C/C=C3\CO[C@@H]4[C@H](O)C(C)=C[C@@H](C(=O)O1)[C@]34O)O2 [ABAMECTIN COMPONENT B1A]
MIC (Caenorhabditis elegans): 2 ng/mL (≈ 2.29 nM)
MIC (Artemia salina): 0.5 ng/mL (≈ 0.573 nM)

CCOC(=O)CO[C@H]1[C@H](C)OC(O[C@H]2[C@H](C)O[C@@H](OC3/C(C)=C/C[C@@H]4C[C@@H](C[C@]5(C=C[C@H](C)[C@@H](C(C)CC)O5)O4)OC(=O)[C@@H]4C=C(C)[C@@H](O)[C@H]5OC/C(=C\C=C\[C@@H]3C)[C@]54O)C[C@@H]2OC)C[C@@H]1OC (stereo not given in full)
MIC (Caenorhabditis elegans): 2 ng/mL (≈ 2.09 nM)
MIC (Artemia salina): 0.5 ng/mL (≈ 0.521 nM)

CCC(C)[C@H]1O[C@]2(C=C[C@@H]1C)C[C@@H]1C[C@@H](C/C=C(\C)C(O[C@H]3C[C@H](OC)C(O[C@H]4C[C@H](OC)[C@@H](OCCN5CCOCC5)[C@H](C)O4)[C@H](C)O3)[C@@H](C)/C=C/C=C3\CO[C@@H]4[C@H](O)C(C)=CC(C(=O)O1)C34O)O2 (stereo not given in full)
MIC (Caenorhabditis elegans): 10 ng/mL (≈ 10.1 nM)
MIC (Artemia salina): 2 ng/mL (≈ 2.03 nM)

CCOC(=O)CO[C@H]1[C@H](C)O[C@@H](O[C@@H]2/C(C)=C/C[C@@H]3C[C@@H](C[C@]4(C=C[C@H](C)[C@@H](C(C)CC)O4)O3)OC(=O)C3C=C(C)[C@@H](O)[C@H]4OC/C(=C\C=C\[C@@H]2C)C34O)C[C@@H]1OC (stereo not given in full)
MIC (Caenorhabditis elegans): 2 ng/mL (≈ 2.45 nM)
MIC (Artemia salina): 0.5 ng/mL (≈ 0.613 nM)

CCC(C)[C@H]1O[C@]2(C=C[C@@H]1C)C[C@@H]1C[C@@H](C/C=C(\C)C(O[C@H]3C[C@H](OC)C(O[C@H]4C[C@H](OC)[C@@H](OCCNC(C)=O)[C@H](C)O4)[C@H](C)O3)[C@@H](C)/C=C/C=C3\CO[C@@H]4[C@H](O)C(C)=CC(C(=O)O1)C34O)O2 (stereo not given in full)
MIC (Caenorhabditis elegans): 10 ng/mL (≈ 10.4 nM)
MIC (Artemia salina): 10 ng/mL (≈ 10.4 nM)

CCC(C)[C@H]1O[C@]2(C=C[C@@H]1C)C[C@@H]1C[C@@H](C/C=C(\C)C(O[C@H]3C[C@H](OC)C(O[C@H]4C[C@H](OC)[C@@H](OC/C=N/O)[C@H](C)O4)[C@H](C)O3)[C@@H](C)/C=C/C=C3\CO[C@@H]4[C@H](O)C(C)=CC(C(=O)O1)C34O)O2 (stereo not given in full)
MIC (Caenorhabditis elegans): 2 ng/mL (≈ 2.15 nM)
MIC (Artemia salina): 2 ng/mL (≈ 2.15 nM)

CCOC(=O)CO[C@H]1[C@H](C)O[C@@H](OC2[C@H](C)O[C@@H](OC3/C(C)=C/C[C@@H]4C[C@@H](C[C@]5(CC(=O)[C@H](C)[C@@H](C(C)CC)O5)O4)OC(=O)C4C=C(C)[C@@H](O)[C@H]5OC/C(=C\C=C\[C@@H]3C)C45O)C[C@@H]2OC)C[C@@H]1OC (stereo not given in full)
MIC (Caenorhabditis elegans): 10 ng/mL (≈ 10.3 nM)
MIC (Artemia salina): 2 ng/mL (≈ 2.05 nM)

CCC(C)[C@H]1O[C@]2(C=C[C@@H]1C)C[C@@H]1C[C@@H](C/C=C(\C)C(O[C@H]3C[C@H](OC)C(O[C@H]4C[C@H](OC)[C@@H](OCCN=[N+]=[N-])[C@H](C)O4)[C@H](C)O3)[C@@H](C)/C=C/C=C3\CO[C@@H]4[C@H](O)C(C)=CC(C(=O)O1)C34O)O2 (stereo not given in full)
MIC (Caenorhabditis elegans): 10 ng/mL (≈ 10.6 nM)
MIC (Artemia salina): 0.5 ng/mL (≈ 0.531 nM)

CCC(C)[C@H]1O[C@]2(CC[C@@H]1C)C[C@@H]1C[C@@H](C/C=C(\C)[C@@H](O[C@H]3C[C@H](OC)[C@@H](OCC(=O)O)[C@H](C)O3)[C@@H](C)/C=C/C=C3\CO[C@@H]4[C@H](O)C(C)=CC(C(=O)O1)C34O)O2 (stereo not given in full)
MIC (Caenorhabditis elegans): 10 ng/mL (≈ 12.7 nM)
MIC (Artemia salina): 10 ng/mL (≈ 12.7 nM)

CCOC(=O)CO[C@H]1[C@H](C)O[C@@H](O[C@@H]2/C(C)=C/C[C@@H]3C[C@@H](C[C@]4(CC[C@H](C)[C@@H](C(C)CC)O4)O3)OC(=O)C3C=C(C)[C@@H](O)[C@H]4OC/C(=C\C=C\[C@@H]2C)C34O)C[C@@H]1OC (stereo not given in full)
MIC (Caenorhabditis elegans): 2 ng/mL (≈ 2.45 nM)
MIC (Artemia salina): 0.5 ng/mL (≈ 0.612 nM)

CCOC(=O)CO[C@H]1[C@H](C)O[C@@H](OC2[C@H](C)O[C@@H](OC3/C(C)=C/C[C@@H]4C[C@@H](C[C@]5(CC(O)[C@H](C)[C@@H](C(C)CC)O5)O4)OC(=O)C4C=C(C)[C@@H](O)[C@H]5OC/C(=C\C=C\[C@@H]3C)C45O)C[C@@H]2OC)C[C@@H]1OC (stereo not given in full)
MIC (Caenorhabditis elegans): 2 ng/mL (≈ 2.05 nM)
MIC (Artemia salina): 0.5 ng/mL (≈ 0.512 nM)

CCC(C)[C@H]1O[C@]2(C=C[C@@H]1C)C[C@@H]1C[C@@H](C/C=C(\C)C(O[C@H]3C[C@H](OC)C(O[C@H]4C[C@H](OC)[C@@H](OCCO)[C@H](C)O4)[C@H](C)O3)[C@@H](C)/C=C/C=C3\CO[C@@H]4[C@H](O)C(C)=CC(C(=O)O1)C34O)O2 (stereo not given in full)
MIC (Caenorhabditis elegans): 10 ng/mL (≈ 10.9 nM)
MIC (Artemia salina): 2 ng/mL (≈ 2.18 nM)

CCC(C)[C@H]1O[C@]2(C=C[C@@H]1C)C[C@@H]1C[C@@H](C/C=C(\C)C(O[C@H]3C[C@H](OC)C(O[C@H]4C[C@H](OC)[C@@H](OC/C=N/OC)[C@H](C)O4)[C@H](C)O3)[C@@H](C)/C=C/C=C3\CO[C@@H]4[C@H](O)C(C)=CC(C(=O)O1)C34O)O2 (stereo not given in full)
MIC (Caenorhabditis elegans): 2 ng/mL (≈ 2.12 nM)
MIC (Artemia salina): 0.5 ng/mL (≈ 0.53 nM)

CCC(C)[C@H]1O[C@]2(C=C[C@@H]1C)C[C@@H]1C[C@@H](C/C=C(\C)C(O[C@H]3C[C@H](OC)C(O[C@H]4C[C@H](OC)[C@@H](OCCBr)[C@H](C)O4)[C@H](C)O3)[C@@H](C)/C=C/C=C3\CO[C@@H]4[C@H](O)C(C)=CC(C(=O)O1)C34O)O2 (stereo not given in full)
MIC (Caenorhabditis elegans): 10 ng/mL (≈ 10.2 nM)
MIC (Artemia salina): 2 ng/mL (≈ 2.04 nM)

CCOC(=O)CO[C@H]1[C@H](C)O[C@@H](OC2[C@H](C)O[C@@H](OC3/C(C)=C/C[C@@H]4C[C@@H](C[C@]5(CC[C@H](C)[C@@H](C(C)CC)O5)O4)OC(=O)C4C=C(C)[C@@H](O)[C@H]5OC/C(=C\C=C\[C@@H]3C)C45O)C[C@@H]2OC)C[C@@H]1OC (stereo not given in full)
MIC (Caenorhabditis elegans): 2 ng/mL (≈ 2.08 nM)
MIC (Artemia salina): 0.5 ng/mL (≈ 0.52 nM)

CCC(C)[C@H]1O[C@]2(C=C[C@@H]1C)C[C@@H]1C[C@@H](C/C=C(\C)[C@@H](O[C@H]3C[C@H](OC)[C@@H](OCC(=O)O)[C@H](C)O3)[C@@H](C)/C=C/C=C3\CO[C@@H]4[C@H](O)C(C)=CC(C(=O)O1)C34O)O2 (stereo not given in full)
MIC (Caenorhabditis elegans): 10 ng/mL (≈ 12.7 nM)
MIC (Artemia salina): 2 ng/mL (≈ 2.54 nM)

CCC(C)[C@H]1O[C@]2(C=C[C@@H]1C)C[C@@H]1C[C@@H](C/C=C(\C)C(O[C@H]3C[C@H](OC)C(O[C@H]4C[C@H](OC)[C@@H](OCCN5CCCCC5)[C@H](C)O4)[C@H](C)O3)[C@@H](C)/C=C/C=C3\CO[C@@H]4[C@H](O)C(C)=CC(C(=O)O1)C34O)O2 (stereo not given in full)
MIC (Caenorhabditis elegans): 50 ng/mL (≈ 50.8 nM)
MIC (Artemia salina): 10 ng/mL (≈ 10.2 nM)

CCC(C)[C@H]1O[C@]2(CC[C@@H]1C)C[C@@H]1C[C@@H](C/C=C(\C)C(O[C@H]3C[C@H](OC)C(O[C@H]4C[C@H](OC)[C@@H](OCC(=O)O)[C@H](C)O4)[C@H](C)O3)[C@@H](C)/C=C/C=C3\CO[C@@H]4[C@H](O)C(C)=CC(C(=O)O1)C34O)O2 (stereo not given in full)
MIC (Caenorhabditis elegans): 0.5 ng/mL (≈ 0.536 nM)
MIC (Artemia salina): 0.1 ng/mL (≈ 0.107 nM)

CCC(C)[C@H]1O[C@]2(C=C[C@@H]1C)C[C@@H]1C[C@@H](C/C=C(\C)C(O[C@H]3C[C@H](OC)C(O[C@H]4C[C@H](OC)[C@@H](OCCN)[C@H](C)O4)[C@H](C)O3)[C@@H](C)/C=C/C=C3\CO[C@@H]4[C@H](O)C(C)=CC(C(=O)O1)C34O)O2 (stereo not given in full)
MIC (Caenorhabditis elegans): 50 ng/mL (≈ 54.6 nM)
MIC (Artemia salina): 10 ng/mL (≈ 10.9 nM)
